Results as given in patent US20040044046A1, “Stability of lipoic acid” (priority 2002, published 2004).
Values belong to the compound of their own block, whether it stands above or below them.

Experiments:
[1] = can degrade under some warehousing conditions; cited from earlier work
[2] = reduced form with two -SH groups; cited from earlier work
[3] = Storage stability of the nicotinamide lipoate crystalline powder, followed by repeated infrared spectrophotometry; assay type: physicochemical
Source text: A small quantity of the powder as a mineral oil mull spread was spread on NaCl polished crystal plates. The plate was placed in a Beckman Infrared Spectrophotometer AccuLab 2 grating machine, linear in wave number.

SMILES: O=C(O)CCCC[C@@H]1CCSS1 [R-LA, R-α-lipoic acid]
Temperature above which unstable [1]: above 40 °C

SMILES: O=C(O)CCCC[C@@H](S)CCS (racemic) [DHLA, dihydrolipoate]
Oxidation potential [2]: −0.29 V

Change in crystal form or chemical composition on standing ([3]; ambient conditions (light and temperature) for over a year): essentially no change
Infrared spectrum on repeat spectrophotometry compared with initial spectrum ([3]; mineral oil mull on NaCl plates, repeated at about 3 and 17 months, ambient conditions (light and temperature)): essentially the same
SMILES: NC(=O)c1cccnc1.O=C(O)CCCCC1CCSS1 (stereo not shown) [Example 1]
